Here are results for eight compounds from paper PMC8595511 (Experimental eye research, 2021).

Assay [1] addresses T1, recombinant mouse retbindin (mRTBN, RTBDN) (Mus musculus, UniProt Q8QZY4).
T1 sequence (Q8QZY4 32-247): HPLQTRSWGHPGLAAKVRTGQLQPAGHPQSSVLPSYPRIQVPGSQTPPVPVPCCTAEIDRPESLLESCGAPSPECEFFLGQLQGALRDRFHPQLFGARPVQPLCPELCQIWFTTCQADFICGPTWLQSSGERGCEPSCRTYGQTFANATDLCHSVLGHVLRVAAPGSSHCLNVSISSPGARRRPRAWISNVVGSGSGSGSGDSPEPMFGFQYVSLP
The experiment in a line: bio-layer interferometry. Format: binding. As to conditions: PBS.

Assay [2] has as its target Bovine Interphotoreceptor Retinoid Binding Protein (bIRBP) (Bos taurus, UniProt P12661). The experiment in a line: bio-layer interferometry. Particulars: PBS; ligand predissolved in DMSO, 1-10 μM. For orientation: BLI is a label-free optical method that tracks binding on a fibre tip over time.

Sequence of Bovine Interphotoreceptor Retinoid Binding Protein (bIRBP) (P12661 23-1286): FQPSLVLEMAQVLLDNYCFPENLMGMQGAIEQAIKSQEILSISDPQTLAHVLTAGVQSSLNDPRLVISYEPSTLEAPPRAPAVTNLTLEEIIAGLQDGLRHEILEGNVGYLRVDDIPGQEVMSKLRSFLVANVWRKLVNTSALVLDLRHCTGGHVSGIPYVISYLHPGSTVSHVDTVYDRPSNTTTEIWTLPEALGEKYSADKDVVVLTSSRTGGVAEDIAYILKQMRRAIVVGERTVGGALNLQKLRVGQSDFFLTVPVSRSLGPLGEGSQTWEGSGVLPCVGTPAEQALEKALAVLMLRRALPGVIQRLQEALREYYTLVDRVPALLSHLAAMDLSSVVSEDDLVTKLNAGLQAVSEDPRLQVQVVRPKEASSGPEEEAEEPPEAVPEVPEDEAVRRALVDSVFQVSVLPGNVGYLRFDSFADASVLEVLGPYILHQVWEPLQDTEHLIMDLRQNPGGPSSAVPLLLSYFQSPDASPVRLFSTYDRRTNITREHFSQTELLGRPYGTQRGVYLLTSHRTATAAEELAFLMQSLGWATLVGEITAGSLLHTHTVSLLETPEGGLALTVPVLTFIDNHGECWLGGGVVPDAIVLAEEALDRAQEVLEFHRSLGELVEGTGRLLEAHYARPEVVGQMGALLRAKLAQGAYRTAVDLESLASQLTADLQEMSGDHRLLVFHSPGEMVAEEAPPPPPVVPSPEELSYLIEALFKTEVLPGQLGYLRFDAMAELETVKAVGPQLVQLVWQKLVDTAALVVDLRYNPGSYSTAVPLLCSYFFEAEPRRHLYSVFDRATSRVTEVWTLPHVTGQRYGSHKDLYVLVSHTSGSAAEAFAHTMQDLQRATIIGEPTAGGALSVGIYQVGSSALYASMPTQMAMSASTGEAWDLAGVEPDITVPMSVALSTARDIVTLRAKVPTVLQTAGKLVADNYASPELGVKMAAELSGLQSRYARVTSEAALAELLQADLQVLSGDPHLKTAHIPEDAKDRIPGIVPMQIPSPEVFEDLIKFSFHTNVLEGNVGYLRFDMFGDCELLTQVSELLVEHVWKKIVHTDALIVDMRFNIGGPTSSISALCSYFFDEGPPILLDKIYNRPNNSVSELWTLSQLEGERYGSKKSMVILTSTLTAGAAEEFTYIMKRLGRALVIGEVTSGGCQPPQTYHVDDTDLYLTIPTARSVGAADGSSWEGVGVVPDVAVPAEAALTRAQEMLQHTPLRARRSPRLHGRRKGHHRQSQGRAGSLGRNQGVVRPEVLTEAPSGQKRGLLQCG

With `O=C1OC2(c3ccc(O)cc3Oc3cc(O)ccc32)c2ccccc21` [fluorescein, reference compound], the Dissociation constant entry in assay [1] (1-100 μM) was “Dissociation constants for retinoids, flavins and fluorescein (as a control) on retbindin”.
As for `CC1=C(/C=C/C(C)=C/C=C\C(C)=C\C=O)C(C)(C)CCC1` [11-cis retinal], the Dissociation constant result in assay [1] (ligand predissolved in DMSO, 1-10 μM) is given as “the protein showed significant affinity for several retinoids, particularly for 11-cis retinal”; in assay [2], “very similar to the well characterized 11-cis retinal transport protein IRBP”.
As to `Cc1cc2nc3c(=O)[nH]c(=O)nc-3n(C[C@H](O)[C@H](O)[C@H](O)COP(=O)(O)O)c2cc1C` [FMN], the Dissociation constant entry in assay [1] (1-100 μM) is “Dissociation constants for retinoids, flavins and fluorescein (as a control) on retbindin”.
Turning to `CC1=C(/C=C/C(C)=C\C=C\C(C)=C\C=O)C(C)(C)CCC1` [9-cis retinal], the Dissociation constant entry in assay [1] is “Dissociation constants for retinoids, flavins and fluorescein (as a control) on retbindin”.
For the compound `CC1=C(/C=C/C(C)=C\C=C\C(C)=C\C(=O)O)C(C)(C)CCC1` [9-cis retinoic acid], in assay [1], the Dissociation constant result is “Dissociation constants for retinoids, flavins and fluorescein (as a control) on retbindin”.
Take `Cc1cc2nc3c(=O)[nH]c(=O)nc-3n(C[C@H](O)[C@H](O)[C@H](O)CO)c2cc1C` [riboflavin]: in assay [1] (1-100 μM), the Dissociation constant entry was “Dissociation constants for retinoids, flavins and fluorescein (as a control) on retbindin”.
Take `CC1=C(/C=C/C(C)=C/C=C/C(C)=C/C=O)C(C)(C)CCC1` [all trans retinal]: the Dissociation constant result in assay [1] is “Dissociation constants for retinoids, flavins and fluorescein (as a control) on retbindin”.
On the same count and under the same terms, to `CC1=C(/C=C/C(C)=C/C=C\C(C)=C\C(=O)O)C(C)(C)CCC1` [11-cis retinoic acid] belongs “Dissociation constants for retinoids, flavins and fluorescein (as a control) on retbindin”.
